Several values for one entry are separate records, joined by “and”; a condition that tells them apart may be missing. Equal values may be shown once. Read-outs that look alike come from different tables or passages of the source.
Experiments:
[1] = type: physicochemical
Description: Stability Testing Chromatographic Conditions: VHPLC Parameters VHPLC System: Waters AcQuity BSM or […] system equipped with a Waters UV/Vis Detector Column: Ascentis Express C18, 150 mm×2.1 mm i.d., 2.7 um particle size. Detector Wavelength: 218 nm VHPLC detector time constrat: normal VHPLC sampling rate: 20 Hz […] Flow Rate: 0.5 mL/min Injection volume 1 uL Column temperature: 30° C. Run time: 14 minutes Sample temperature: 5° C. Mobile Phase A: water:acetonitrile:TFA (95:5:0.05) Mobile Phase B: water: acetonitrile:TFA (5:95:0.05) [table] […] The study consisted of one batch of drug substance packaged in double LDPE bags, placed in a 0.6 L HDPE paid with a lid and gasket.

[2] = in vivo
[3] = for AUC (Mean) / Dissolution Rate (Mean): 150 mg in 250 mL (0.60 mg/mL API equivalent), 37° C.
Description: Microdissolution Microdissolution experiments were conducted in a pIon μDiss Profiler microdissolution instrument (pION μDiss Profiler) with a fiber optic UV monitoring system, as follows: Probes: 2.5 mm probes (5 mm path length) Volume: 15 ml Stirring: 150 rpm Temperature: 37° C. […] The target doses were 150 mg in 250 mL (0.60 mg/mL API equivalent) in FaSSIF (pH 6.5) and FeSSIF (pH 5).

[4] = pH solubility of Compound 1 MSA Salt Form 1; type: physicochemical
Description: Measurements were taken using an Orion ATI Model 370 pH meter. […] To each vial was added 5 mL of various aqueous acidic and basic solutions. Each vial was stoppered and vortexed and sonicated to mix well. The pH of each sample was recorded. […] After 24 hours of stirring, the pH of each sample (as a suspension) was recorded. Suspensions were filtered with 0.2 micron Acrodisc syringe filters. The clear filtrates were collected and vortexed to mix well pH of each filtrated was recorded. pH of suspension and filtrate were nearly identical. A 1.0 mL aliquot of each of the filtrates 25-fold using 50% acetonitrile/50% Milli-Q water, q.w. each flask to 25 mL. […] Samples were assayed using the following HPLC method: Column: […] Mobile phase Solvent A: Water w/0.05% TFA • Solvent B: Acetonitrile w/0.05% TFA […] Column temperature: Ambient RT Detector Wavelength: 250 nm […] Working Concentration: […] Added 20 mL of 100% acetonitrile to the vial. Stoppered, vortexed, and sonicated the vial. […] Transferred the suspension to a 250 mL glass volumetric flask, and washed out the glass vial with 4×20 mL 50% acetonitrile/50% Milli-Q water, transferring each wash into the volumetric flask. All solids dissolved. Q.S. the volumetric flask to 250 mL final volume using 50% acetonitrile/50% Milli Q water, shake to give standard solution at 101.5 mcg/mL.

[5] = Jet milling: milled physical properties; type: physicochemical
Text: Particle size reduction can be achieved by jet milling using a 0202 Jet o Mizer loop Mill. Particle collisions are enabled by nitrogen gas supplied at high pressure to the milling chamber via two grinding nozzles. The feed rate of the drug substance into the mill is controlled by a feeder that supplies drug substance into the feed hopper of the mill at a visually consistent feed rate. High pressure nitrogen gas is supplied through the venturi nozzle to inject drug substance from the mill feed hopper into the milling chamber, and this is referred to as the venture pressure. The grinding and venturi pressures are adjusted to the desired level before the start of milling, and both are kept at the same level unless product blow back from the feed hopper is observed. The venturi pressure is typically adjusted to 10 PSI above the grinding pressure. The micronized drug substance exits via the mill chamber outlet to be collected in the product collection unit consisting of a combined cyclone and porous fabric filter media assembly. Milling parameters may be adjusted based on sample analysis. Particle sizes that range between 12.7 μm and 24.0 μm (D90 by laser-light scattering) are achieved from the milling operation.

[6] = No. 1 Long Term, 5° C., 1 month
[7] = No. 1 Long Term, 5° C., 3 months
[8] = No. 1 Long Term, 5° C., 6 months
[9] = No. 1 Long Term, 5° C., 12 months
[10] = No. 2 Long Term, 25° C./60% RH, 1 month
[11] = No. 2 Long Term, 25° C./60% RH, 3 months
[12] = No. 2 Long Term, 25° C./60% RH, 6 months
[13] = No. 2 Long Term, 25° C./60% RH, 12 months
[14] = No. 3 Accelerated, 40° C./75% RH, 1 month
[15] = No. 3 Accelerated, 40° C./75% RH, 2 weeks
[16] = No. 3 Accelerated, 40° C./75% RH, 3 months
[17] = No. 3 Accelerated, 40° C./75% RH, 6 months
[18] = No. 5 Stress, 40° C./75% RH exposed, 1 month
[19] = No. 5 Stress, 40° C./75% RH exposed, 2 weeks
[20] = No. 5 Stress, 40° C./75% RH exposed, 3 months
[21] = No. 5 Stress, 40° C./75% RH exposed, 6 months
[22] = No. 7 Stress, 25° C./HIL/UVA Exposed, 2 weeks
[23] = No. 7 Stress, 25° C./HIL/UVA Exposed, 4 days
[24] = No. 7 Stress, 25° C./HIL/UVA protected, 2 weeks
[25] = No. 7 Stress, 25° C./HIL/UVA protected, 4 days

photostability study conclusion [1]: does not need to be protected from light
Assay “as is” [1, 6]: 81.9%
Assay “corrected” [1, 6]: 100.5%
Assay “as is” [1, 7]: 82.4%
Assay “corrected” [1, 7]: 101.1%
Assay “as is” [1, 8]: 81.2%
Assay “corrected” [1, 8]: 99.6%
Assay “as is” [1, 9]: 81.7%
Assay “corrected” [1, 9]: 100.5%
Assay “as is” [1, 10]: 82.1%
Assay “corrected” [1, 10]: 100.8%
Assay “as is” [1, 11]: 81.7%
Assay “corrected” [1, 11]: 100.4%
Assay “as is” [1, 12]: 81.2%
Assay “corrected” [1, 12]: 99.7%
Assay “as is” [1, 13]: 81.1%
Assay “corrected” [1, 13]: 99.8%
Assay “as is” [1, 14]: 82.3%
Assay “corrected” [1, 14]: 101.0%
Assay “as is” [1, 15]: 80.7%
Assay “corrected” [1, 15]: 99.1%
Assay “as is” [1, 16]: 81.5%
Assay “corrected” [1, 16]: 100.1%
Assay “as is” [1, 17]: 81.8%
Assay “corrected” [1, 17]: 100.4%
Assay “as is” ([1]; No. 4 Stress, −20° C., 1 month): 82.4%
Assay “corrected” ([1]; No. 4 Stress, −20° C., 1 month): 101.1%
Assay “as is” [1, 18]: 81.6%
Assay “corrected” [1, 18]: 100.3%
Assay “as is” [1, 19]: 80.9%
Assay “corrected” [1, 19]: 99.3%
Assay “as is” [1, 20]: 81.4%
Assay “corrected” [1, 20]: 99.9%
Assay “as is” [1, 21]: 80.3%
Assay “corrected” [1, 21]: 98.6%
Assay “as is” ([1]; No. 6 Stress, 50° C., 1 month): 82.0%
Assay “corrected” ([1]; No. 6 Stress, 50° C., 1 month): 100.7%
Assay “as is” ([1]; No. 6 Stress, 50° C., 2 weeks): 80.8%
Assay “corrected” ([1]; No. 6 Stress, 50° C., 2 weeks): 99.2%
Assay “as is” ([1]; No. 6 Stress, 50° C., 3 months): 82.2%
Assay “corrected” ([1]; No. 6 Stress, 50° C., 3 months): 100.9%
Assay “as is” [1, 22]: 78.7%
Assay “corrected” [1, 22]: 96.8%
Assay “as is” [1, 23]: 80.8%
Assay “corrected” [1, 23]: 99.2%
Assay “as is” [1, 24]: 80.4%
Assay “corrected” [1, 24]: 98.7%
Assay “as is” [1, 25]: 81.1%
Assay “corrected” [1, 25]: 99.5%
storage time remained stable ([1]; accelerated condition of 40° C./75% RH): ≥ 6 months
changes in XRD pattern ([1]; after any of the study numbers): No changes
change in total impurities on light exposure ([1]; approximately 3.5 times the minimum ICH exposure): slight increase
Color and appearance (white or off-white powder or powder with lumps) ([1]; during the studies): maintained
4-chloroaniline (impurity) ([1]; initial): 0.09%
enantiomeric impurity of Compound 1 ([1]; initial): < 0.05%
total impurities ([1]; initial): 0.57%
water content ([1]; initial): < 0.1 % w/w
Assay “as is” ([1]; initial (average of 2 results)): 79.0% and 79.0^1%
Assay “corrected” ([1]; initial (average of 2 results)): 97.0% and 97.0^1%
storage time remained stable ([1]; long-term conditions of 5° C. and 25° C./60% relative humidity (RH)): at least 12 months
changes on light exposure ([1]; minimum ICH Q1B exposure): Essentially no changes
storage time remained stable ([1]; stress condition of 50° C.): ≥ 3 months
total impurities ([1]; study number 3): 0.48%
total impurities ([1]; study number 6): 0.50%
changes in assay “as is” or “corrected” from initial ([1]; study numbers 1, 2, 3, and 5): Essentially no changes
changes in enantiomeric impurity ([1]; study numbers 1 and 2): No changes
changes in water content ([1]; study numbers 1 and 2): Essentially no changes
4-chloroaniline (impurity) ([1]; study numbers 3 and 6 (both conditions)): < 0.05%
changes in total impurities from initial ([1]; study numbers 4, 1, 2, and 3): Essentially no changes
oral bioavailability [2]: increased oral bioavailability
rate and extent of dissolution compared to an amorphous form or HCl salts (amorphous and crystalline) ([3]; Example 14, FIG. 7, both FeSSiF and FaSSiF, simulated 150 mg human dose): faster rate and extent of dissolution
rate and extent of dissolution compared to Compound 1 free base (amorphous) ([3]; Example 14, FIG. 8, FaSSIF and FeSSIF at 0.2 mg/mL): faster rate and extent of dissolution
rate of dissolution ([3]; Example 16, FeSSIF): 38 µg/mL/min
AUC (Mean) ([3]; FaSSIF (pH 6.5)): 14988.073 µg·min/mL
Dissolution Rate (Mean) ([3]; FaSSIF (pH 6.5)): 2.460 µg/mL/min
AUC (Mean) ([3]; FeSSIF (pH 5)): 46410.396 µg·min/mL
Dissolution Rate (Mean) ([3]; FeSSIF (pH 5)): 38.850 µg/mL/min
Peak Solubility (Mean) ([3]; pH 5): 271.564 µg/mL
Peak Solubility (Mean) ([3]; pH 6.5): 100.877 µg/mL
Solubility ([4]; pH 0.49): 24 µg/mL
Solubility ([4]; pH 1.01): 73 µg/mL
Solubility ([4]; pH 2.46): 147 µg/mL
Solubility ([4]; pH 2.7): 85 µg/mL
Solubility ([4]; pH 3.14): 18 µg/mL
Solubility ([4]; pH 3.61): 3 µg/mL
Solubility ([4]; pH 4.53): 1 µg/mL
Solubility ([4]; pH 6.82): 1 µg/mL
Solubility ([4]; pH 7): 96 µg/mL
Solubility ([4]; pH 9.68): 2 µg/mL
Bulk density ([5]; for sample with D90 of 22.3 μm): 0.193 g/mL
D50 ([5]; range from 0202 Jet Mill): 6.2-9.8 μm
Surface area ([5]; range from 0202 Jet Mill): 2.08-3.63 m^2/g
D90 ([5]; range from 0202 Jet Mill, laser-light scattering): 12.7-24.0 μm
Compound: CS(=O)(=O)O.C[C@@H](C(=O)Nc1ccc(Cl)cc1)[C@H]1CC[C@@H](c2ccnc3ccc(F)cc32)CC1 [Compound 1 MSA Salt Form 1, (R)-N-(4-chlorophenyl)-2-((1S,4S)-4-(6-fluoroquinolin-4-yl)cyclohexyl)propanamide methanesulfonate]

Source: patent US11236049B2, “Amorphous and crystalline forms of IDO inhibitors” (BRISTOL-MYERS SQUIBB COMPANY, priority 2017, dated 2022)
